Source: PMC6100568, “Novel Uridine Glycoconjugates, Derivatives of 4-Aminophenyl 1-Thioglycosides, as Potential Antiviral Compounds” (Molecules : A Journal of Synthetic Chemistry and Natural …, 2018)
“Also recorded” adds a separate entry of the source. Like-named read-outs stand apart in the source and are kept apart here.

Experiments:
[1] = test system: classical swine fever virus (CSFV); assay: microbe, parasite or virus in culture
swine kidney (SK6) cells [2] = test system: swine kidney (SK6) cells
[3] = MTT cell viability assay in non-infected Huh-7.5 cells; conditions: human
in vitro [4] = conditions: swine
[5] = test system: classical swine fever virus (CSFV)
[6] = test system: HCVcc (Jc1/JFH genotype 2a); assay: HCVcc pseudo-plaque reduction assay (IPMA) in Huh-7.5 cells; conditions: for SI (CC50/IC50): HCV (Huh-7.5 cells); for IC50: Hepatitis C virus, Huh7.5
[7] = test system: HCV replication (Huh7-J17 replicon); assay: HCV replicon Huh7-J17 luciferase assay; format: cell-based; conditions: Hepatitis C virus; Huh7-J17 replicon cells, 72 h; read-out: IC50 (inhibition of HCV RNA replication, luciferase activity)
[8] = test system: HCVcc genotype 2a JFH-1 strain; assay: SEAP reporter assay in Huh7-J20 cells, three infection models (time-of-drug addition); format: cell-based, hepatitis C virus; conditions: SEAP level; for effect on virus entry (Model 1): 1 h pre-treatment + 3 h infection with compound, then 72 h without; for antiviral activity in post-viral entry model (Model 3): compound added after 3 h infection for 72 h; for antiviral activity in full life cycle (Model 2): compound present before, during and 72 h after infection
in vitro [9] = conditions: human
[10] = test system: HCV viral RNA (NS5B gene); format: cell-based, hepatitis C virus
swine kidney (SK6) cells [11] = conditions: cited from earlier work
viral genome replication = conditions: cited from earlier work
Huh-7.5 cells [12] = conditions: cited from earlier work
[13] = test system: HCVcc (Jc1/JFH genotype 2a); conditions: cited from earlier work
[14] = test system: classical swine fever virus (CSFV); conditions: cited from earlier work
β-1,4GalT = target: T1, β-1,4GalT (Bos taurus, UniProt P08037); assay: Bovine milk β-1,4GalT I assay (RP-HPLC, fluorescence); format: biochemical; conditions: for ability to inhibit β-1,4GalT activity: 0.8 mM
T1 construct: purchased; host or cells: bovine milk
T1 sequence (P08037 78-402 limits assumed): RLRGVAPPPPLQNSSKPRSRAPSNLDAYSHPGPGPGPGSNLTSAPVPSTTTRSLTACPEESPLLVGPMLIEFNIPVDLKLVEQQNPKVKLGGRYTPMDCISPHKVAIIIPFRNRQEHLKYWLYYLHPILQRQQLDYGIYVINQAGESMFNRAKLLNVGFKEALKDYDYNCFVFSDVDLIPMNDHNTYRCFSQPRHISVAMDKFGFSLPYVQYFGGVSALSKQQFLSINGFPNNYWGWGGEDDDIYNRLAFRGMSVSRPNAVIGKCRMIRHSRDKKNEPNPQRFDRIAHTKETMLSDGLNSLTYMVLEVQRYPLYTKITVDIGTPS

Huh7-J17 cells = conditions: human
Huh-7.5 cells [15] = assay: MTT cell viability assay in non-infected Huh-7.5 cells; conditions: concentration reducing cell viability by 50%, mean ± S.D.

CC(=O)OC[C@H]1O[C@@H](Sc2ccc(NC(=O)CCC(=O)OC[C@H]3O[C@@H](n4ccc(=O)[nH]c4=O)[C@H](O[Si](C)(C)C(C)(C)C)[C@@H]3O[Si](C)(C)C(C)(C)C)cc2)[C@H](OC(C)=O)[C@@H](OC(C)=O)[C@@H]1OC(C)=O [Compound 8]
IC50 [1]: 4.5 ± 0.3 µM
cytotoxicity in words (swine kidney (SK6) cells [2]): relatively toxic
CC50 [3]: 16 ± 1.1 µM
CC50 (in vitro [4]): 42 ± 1.9 µM
SI (CC50/IC50) [5]: 9.3
SI (CC50/IC50) [6]: 4
IC50 [6]: 4 ± 0.2 µM

CC(=O)OC[C@H]1O[C@@H](Sc2ccc(NC(=O)[C@H]3O[C@@H](n4ccc(=O)[nH]c4=O)[C@H](O[Si](C)(C)C(C)(C)C)[C@@H]3O[Si](C)(C)C(C)(C)C)cc2)[C@H](OC(C)=O)[C@@H](OC(C)=O)[C@@H]1OC(C)=O [Compound 12]
IC50 [7]: 4.24 µM
effect on virus entry (Model 1) [8]: none of the tested compounds targeted virus entry; also recorded: neither compound affected viral entry
antiviral activity in post-viral entry model (Model 3) [8]: strong antiviral activity
antiviral activity in full life cycle (Model 2) [8]: strong antiviral activity
IC50 [1]: 4 ± 0.1 µM
cytotoxicity in words (swine kidney (SK6) cells [2]): relatively toxic
CC50 [3]: 270 ± 2.9 µM
CC50 (in vitro [4]): 56 ± 4.3 µM
CC50 (in vitro [9]): 130 µM
amount of viral RNA (NS5B RT-PCR) [10]: significant dose-dependent inhibition
SI (CC50/IC50) [6]: 20.0
IC50 [6]: 13.5 ± 0.7 µM

CC(=O)OC[C@H]1O[C@@H](Sc2ccc(NC(=O)[C@H]3O[C@@H](n4ccc(=O)[nH]c4=O)[C@H](O[Si](C)(C)C(C)(C)C)[C@@H]3O[Si](C)(C)C(C)(C)C)cn2)[C@H](OC(C)=O)[C@@H](OC(C)=O)[C@@H]1OC(C)=O [I]
CC50 (swine kidney (SK6) cells [11]): 86 ± 2.4 µM
reduction of viral genome replication (viral genome replication): up to 90%
CC50 (Huh-7.5 cells [12]): 135 ± 2.4 µM
IC50 [13]: 7 ± 0.7 µM
SI (CC50/IC50) [13]: 19.3
IC50 [14]: 3 ± 0.1 µM
SI (CC50/IC50) [14]: 28.7

O=C(Nc1ccc(S[C@@H]2O[C@H](CO)[C@@H](O)[C@H](O)[C@H]2O)cc1)[C@H]1O[C@@H](n2ccc(=O)[nH]c2=O)[C@H](O)[C@@H]1O [Compound 14]
ability to inhibit β-1,4GalT activity (β-1,4GalT): demonstrated the ability of β-1,4GalT inhibition; also recorded: able to inhibit
IC50 (β-1,4GalT; inhibitor 0.1–0.8 mM, UDP-Gal donor, esculine acceptor): 330 µM
IC50 [1]: 241 ± 9.2 µM
CC50 (swine kidney (SK6) cells [2]; swine): 265 ± 8.6 µM
CC50 [3]: > 475 µM
CC50 (in vitro [4]): 256 µM
SI (CC50/IC50) [5]: 1.1
SI (CC50/IC50) [6]: >1.1
IC50 [6]: 444 ± 12.4 µM

O=C(Nc1ccc(S[C@@H]2O[C@H](CO)[C@H](O)[C@H](O)[C@H]2O)cc1)[C@H]1O[C@@H](n2ccc(=O)[nH]c2=O)[C@H](O)[C@@H]1O [Compound 15]
ability to inhibit β-1,4GalT activity (β-1,4GalT): demonstrated the ability of β-1,4GalT inhibition
reduction of enzyme activity (β-1,4GalT; maximum test concentration of 0.8 mM): 10%
IC50 [1]: 257 ± 6.9 µM
CC50 [3]: 460 ± 9.3 µM
CC50 (in vitro [4]): 278 ± 4.3 µM
SI (CC50/IC50) [5]: 1.1
SI (CC50/IC50) [6]: 1.0
IC50 [6]: 454 ± 9.8 µM

CC(=O)OC[C@H]1O[C@@H](Sc2ccc(NC(=O)[C@H]3O[C@@H](n4ccc(=O)[nH]c4=O)[C@@H]4OC(C)(C)O[C@@H]43)cc2)[C@H](OC(C)=O)[C@@H](OC(C)=O)[C@H]1OC(C)=O [Compound 11]
IC50 [1]: 217 ± 3.9 µM
CC50 [3]: 272 ± 4.5 µM
CC50 (in vitro [4]): 340 ± 9.1 µM
SI (CC50/IC50) [5]: 1.6
SI (CC50/IC50) [6]: 1.6
IC50 [6]: 167 ± 3.1 µM

CC(=O)OC[C@H]1O[C@@H](Sc2ccc(NC(=O)[C@H]3O[C@@H](n4ccc(=O)[nH]c4=O)[C@H](O[Si](C)(C)C(C)(C)C)[C@@H]3O[Si](C)(C)C(C)(C)C)cc2)[C@H](OC(C)=O)[C@@H](OC(C)=O)[C@H]1OC(C)=O [Compound 13]
IC50 [1]: 25 ± 0.9 µM
cytotoxicity in words (swine kidney (SK6) cells [2]): relatively toxic
CC50 [3]: 14 ± 0.9 µM
CC50 (in vitro [4]): 49 ± 3.5 µM
SI (CC50/IC50) [5]: 2.0
SI (CC50/IC50) [6]: 1.9
IC50 [6]: 7.4 ± 0.2 µM

CC(=O)OC[C@H]1O[C@@H](Sc2ccc(NC(=O)CCC(=O)OC[C@H]3O[C@@H](n4ccc(=O)[nH]c4=O)[C@@H]4OC(C)(C)O[C@@H]43)cc2)[C@H](OC(C)=O)[C@@H](OC(C)=O)[C@@H]1OC(C)=O [Compound 7]
IC50 [1]: 97 ± 2 µM
CC50 [3]: 399 ± 11.4 µM
CC50 (in vitro [4]): 103 ± 5.9 µM
SI (CC50/IC50) [5]: 1.1
SI (CC50/IC50) [6]: 1.4
IC50 [6]: 281 ± 4.7 µM

CC(=O)OC[C@H]1O[C@@H](Sc2ccc(NC(=O)[C@H]3O[C@@H](n4ccc(=O)[nH]c4=O)[C@@H]4OC(C)(C)O[C@@H]43)cc2)[C@H](OC(C)=O)[C@@H](OC(C)=O)[C@@H]1OC(C)=O [Compound 10]
IC50 [1]: 149 ± 6.1 µM
CC50 [3]: 258 ± 6.2 µM
CC50 (in vitro [4]): 326 ± 11.2 µM
SI (CC50/IC50) [5]: 2.2
SI (CC50/IC50) [6]: 1.7
IC50 [6]: 154 ± 2.8 µM

CC(=O)OC[C@H]1O[C@@H](Sc2ccc(NC(=O)[C@H]3O[C@@H](n4ccc(=O)[nH]c4=O)[C@H](O[Si](C)(C)C(C)(C)C)[C@@H]3O[Si](C)(C)C(C)(C)C)cn2)[C@H](OC(C)=O)[C@@H](OC(C)=O)[C@H]1OC(C)=O [II]
CC50 (swine kidney (SK6) cells [11]): 151 ± 3.1 µM
reduction of viral genome replication (viral genome replication): up to 90%
CC50 (Huh-7.5 cells [12]): 173 ± 3.2 µM
IC50 [13]: 7 ± 0.4 µM
SI (CC50/IC50) [13]: 24.7
IC50 [14]: 6 ± 0.4 µM
SI (CC50/IC50) [14]: 25.2

CC(C)OC(=O)[C@H](C)N[P@](=O)(OC[C@H]1O[C@@H](n2ccc(=O)[nH]c2=O)[C@](C)(F)[C@@H]1O)Oc1ccccc1 [SOFOSBUVIR, sofosbuvir, reference compound]
IC50 [7]: 0.028 µM
CC50 (Huh7-J17 cells): 23.5 µM
effect on virus entry (Model 1) [8]: no effect on virus entry
antiviral activity in post-viral entry model (Model 3) [8]: exerts its antiviral activity effect
antiviral activity in full life cycle (Model 2) [8]: exerts its antiviral activity effect
CC50 (Huh-7.5 cells [15]): 31 ± 1.2 µM
SI (CC50/IC50) [6]: 119.2
IC50 [6]: 0.26 ± 0.02 µM

CC(=O)OC[C@H]1O[C@@H](Sc2ccc(NC(=O)CCC(=O)OC[C@H]3O[C@@H](n4ccc(=O)[nH]c4=O)[C@H](O[Si](C)(C)C(C)(C)C)[C@@H]3O[Si](C)(C)C(C)(C)C)cc2)[C@H](OC(C)=O)[C@@H](OC(C)=O)[C@H]1OC(C)=O [Compound 9]
IC50 [7]: 4.18 µM
effect on virus entry (Model 1) [8]: none of the tested compounds targeted virus entry; also recorded: neither compound affected viral entry
antiviral activity in post-viral entry model (Model 3) [8]: strong antiviral activity
antiviral activity in full life cycle (Model 2) [8]: strong antiviral activity
IC50 [1]: 4.2 ± 0.5 µM
CC50 [3]: 257 ± 5.7 µM
CC50 (in vitro [4]): 124 ± 6.8 µM
CC50 (in vitro [9]): 133 µM
amount of viral RNA (NS5B RT-PCR) [10]: significant dose-dependent inhibition
SI (CC50/IC50) [5]: 29.5
inhibition of CSFV propagation (size and number of pseudo-plaques) [5]: dose-dependent inhibition
SI (CC50/IC50) [6]: 52.4
IC50 [6]: 4.9 ± 0.3 µM
inhibition of viral HCV replication (pseudo-plaques) ([6]; Huh-7.5 cells, 4–10 µM, Figure 2): dose-dependent inhibition
